In patent publication US20260007629A1, “DIETARY BUTYRATE AND ITS USES” (SOCIETE DES PRODUITS NESTLE S.A., priority 2019, published 2026):

Legend:
[1] = system: rabbit gastric lipase (RGL) followed by porcine pancreatic lipase (PPL); test: In vitro sequential digestion, SGF followed by SIF, pH-stat; format: in vitro ADME
Protocol: (§1) 10 wt % oil in water emulsions stabilised by 0.3 wt % polyoxyethylene sorbitan mono-oleate (Tween® 80) were prepared by mixing the Tween 80 into the oil phase at 40° C., then mixing with the water phase using a magnetic stirrer.
(§2) The lipid emulsion (2 mL) containing 200 mg of fat was subjected to gastrointestinal in vitro lipolysis. […] For gastric digestion, the sample was incubated for 90 minutes with 8.5 mL of simulated gastric fluid (SGF), which consisted of 150 mM NaCl, 450 U/mL pepsin, 18 U/mL rabbit gastric lipase at 37° C. and a pH of 5.5.
The intestinal digestion step was performed in the pH stat where the pH was kept constant at 6.8 by addition of NaOH (0.05 M). […] The intestinal digestion step starts when the temperature reaches 37±0.5° C. The pH was adjusted to pH 6.8 and after incubation of two minutes at this pH and temperature, a pancreatin solution (5 mM tris, 150 mM NaCl at pH 6.8) was added. The final composition of the intestinal fluid was 10 mM CaCl2, 2 mM mixed bile salts, 0.75 mM phospholipid, 150 mM NaCl and 4 mM tris (hydroxymethyl) aminomethane buffer. The intestinal digestion step was carried out for 3 hours in a titration manager from RADIOMETER®. During the intestinal phase of digestion, the kinetics of digestion were followed using a pH-stat (TIM856, RADIOMETER®) technique and expressed as titratable acid (rather than fatty acid) that was calculated by the equation:
TA: Total titratable acid released, mmol; VNaOH: volume of NaOH used to titrate the released acid in 3 h, mL.
(§3) Since the digestion of dietary lipids involves lipases of both gastric and intestinal origin, lipid digestibility was assessed using two digestion models i) simulated intestinal fluid (SIF) with porcine pancreatic lipase (PPL) and ii) sequential digestion in simulated gastric fluid (SGF) with rabbit gastric lipase (RGL) followed by simulated intestinal fluid (SIF) with porcine pancreatic lipase (PPL).

[2] = biological target: T1, porcine pancreatic lipase (PPL) (Sus scrofa, UniProt P00591); details: pig, 3 h, pH 11.5
T1 sequence (P00591 1-450): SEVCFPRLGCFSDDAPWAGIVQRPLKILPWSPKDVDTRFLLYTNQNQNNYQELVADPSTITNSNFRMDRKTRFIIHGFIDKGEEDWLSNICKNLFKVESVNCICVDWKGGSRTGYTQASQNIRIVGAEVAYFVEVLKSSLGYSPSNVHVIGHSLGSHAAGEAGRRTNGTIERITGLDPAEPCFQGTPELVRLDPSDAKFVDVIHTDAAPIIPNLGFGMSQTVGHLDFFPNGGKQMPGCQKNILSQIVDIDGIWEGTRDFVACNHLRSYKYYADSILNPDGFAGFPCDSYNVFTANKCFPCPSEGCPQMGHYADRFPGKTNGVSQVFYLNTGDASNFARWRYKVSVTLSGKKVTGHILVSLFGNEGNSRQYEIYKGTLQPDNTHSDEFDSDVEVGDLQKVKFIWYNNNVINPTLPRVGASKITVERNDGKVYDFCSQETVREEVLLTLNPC
T1 sequence (P02703 23-112 partner): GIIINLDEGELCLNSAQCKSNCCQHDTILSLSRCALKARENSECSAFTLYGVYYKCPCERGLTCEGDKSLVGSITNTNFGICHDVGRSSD
Excerpt: Because many fatty acids are only partially ionised at pH 6.8, direct titration gives only partial picture of the extent of lipid digestion, instead back titration to pH 11.5 or GC-FAME analysis is required to estimate the full extent of digestion.

[3] = biological target: T1, porcine pancreatic lipase (PPL); test: In vitro digestion, simulated intestinal fluid (SIF) model, pH-stat; format: in vitro ADME; design: by porcine pancreatic lipase (from pancreatin); purchased SIGMA-ALDRICH P7585; host or cells: porcine pancreas extract (pancreatin); details: SIF alone; emulsion with 200 mg fat, pH 6.8, 37° C.
Protocol: as §1, §2
The intestinal digestion step was performed in the pH stat where the pH was kept constant at 6.8 by addition of NaOH (0.05 M). […] The intestinal digestion step starts when the temperature reaches 37±0.5° C. […] During the intestinal phase of digestion, the kinetics of digestion were followed using a pH-stat (TIM856, RADIOMETER®) technique and expressed as titratable acid (rather than fatty acid) that was calculated by the equation: […]
as §3

CCCC(=O)OCC(COC(=O)CCC)OC(=O)CCC [tributyrin]
initial lipolysis rate in SIF compartment ([1]; SGF-SIF digestion (90 min SGF pre-exposure, pH 5.5)): 44.1 ± 8.8 µmol/min
hydrolysis in the stomach / extent of gastric lipolysis ([1]; in words, gastric compartment of the model): extensive hydrolysis in the stomach
lipolysis by gastric lipase ([1]; indicated by decreased total fatty acid release in SIF after RGL pre-exposure): ~60%
extent of digestion [2]: 101.5±0.9%
initial (maximal) rate of lipolysis [3]: 223 ± 59 µmol/min
